Values belong to the molecule of their own block, whether it stands above or below them.
Key:
[1] = system: NF-κB DNA-binding activity in HUVECs; experiment: NF-κB activation assay (EMSA) in nuclear extracts; type: cell-based, human; settings: wortmannin 100 µM or H-89 20 µM, 30 mins, then TNF-α 10 ng/ml
Protocol: The endothelial cells were subjected to the indicated treatments followed by induction with TNF-α for indicated time points or 30 mins. The cells were then washed with PBS and dislodged using a cell scraper. The cytoplasmic and nuclear extracts were prepared as described previously, [46].
NF-κB activation in the nuclear extracts of human endothelial cells was assessed by electrophoretic mobility shift assay (EMSA) as described previously, [46]. For supershift experiment, nuclear extracts prepared from unstimulated and TNF-α-stimulated cells were incubated with antibodies against the p50 or p65 subunit of NF-κB or -α-tubulin for 15 mins at 37°C before the complex was analyzed by EMSA. Addition of equal amount of radioactive-labelled probe to all the samples was indicated by the similar intensity of the unincorporated probe observed towards the end of the gel.

[2] = system: Akt phosphorylation in HUVECs; experiment: Akt phosphorylation western blot; type: cell-based, human; settings: wortmannin 100 µM or H-89 20 µM, 30 mins, then TNF-α 10 ng/ml 30 mins
Protocol: Nuclear and cytoplasmic extracts were fractionated on SDS-PAGE with equal amount of proteins per well and transferred onto PVDF membranes and those membranes were incubated with appropriate primary antibodies and treated with HRP conjugated secondary antibodies followed by detection with DAB-H2O2 system. β-tubulin, α-actin and Lamin B1 were used as loading controls. Antibodies against NF-κBp65, phosphoNF-κBp65, IκBα, phosphoIκBα, IKK-β, Akt, phosphoAkt (Ser473) and phosphoAkt (Thr308) were used.

PKA = molecular target: T1, PKA (Homo sapiens, UniProt P17612); experiment: PKA activity assay; type: cell-based
T1 construct: PKA was immunoprecipitated from the total cell lysates of unstimulated and TNF-α-stimulated endothelial cells; endogenous in cells; host or cells: HUVEC (treated with MPTAG, SQ 22536, H-89 ± TNF-α), anti-PKAα immunoprecipitate
Excerpt: PKA was immunoprecipitated from the total cell lysates of unstimulated and TNF-α-stimulated endothelial cells in presence and absence of treatment with agents indicated in Figure 7 using anti-PKAα (W-18) antibody. The immunoprecipates were subjected to kinase activity assay using a Bisamide Rhodamine 110 peptide substrate as per the instructions of the Profluor PKA assay kit (Promega, USA).

[3] = system: TNF-α-induced ICAM-1 expression on human endothelial cells; set-up: method as in PMID 21315792; settings: dose-dependent; cited from earlier work
[4] = system: TNF-α-induced VCAM-1 expression on human endothelial cells; set-up: method as in PMID 21315792; settings: dose-dependent; cited from earlier work
[5] = system: TNF-α-induced E-selectin expression on human endothelial cells; set-up: method as in PMID 21315792; settings: dose-dependent; cited from earlier work
[6] = system: adhesion of neutrophils to the endothelium monolayer; set-up: method as in PMID 21315792; settings: dose-dependent; cited from earlier work
PI-3K = PI-3K activity assay; type: cell-based, human; settings: pretreatment, HUVECs
Excerpt: The catalytic domain of PI-3K was immunoprecipitated from the stimulated and unstimulated endothelial in presence and absence of various compound treatment using an anti-p85α (N-18) antibody. The immunoprecipated proteins were subjected to kinase activity assay using a PI substrate, diC8 followed by detection of the PI(3)P as per the instructions of the Class III PI-3kinase kit (Echelon, USA).

TNF-α-induced NF-κB activation (EMSA), kinase inhibitor alone [1]: enhanced | PKA activity (PKA; H-89 treatment, even in presence of MPTAG): inhibited
Structure (SMILES): O=S(=O)(NCCNC/C=C/c1ccc(Br)cc1)c1cccc2cnccc12 [H-89, reference compound]
TNF-α-induced Akt phosphorylation (Thr308), kinase inhibitor alone [2]: enhanced

Structure (SMILES): Cc1occc(=O)c1O[C@@H]1O[C@H](CO)[C@@H](O)[C@H](O)[C@H]1O [MPG, 2-methyl-pyran-4-one-3-O-β-D-glucopyranoside]
inhibition of TNF-α-induced ICAM-1 expression [3]: inhibited | inhibition of TNF-α-induced VCAM-1 expression [4]: inhibited | inhibition of TNF-α-induced E-selectin expression [5]: inhibited | inhibition of adhesion of neutrophils to the endothelium monolayer [6]: inhibited

PKA activity in unstimulated HUVECs (PKA; SQ 22536 treatment alone): moderately suppressed
Structure (SMILES): Nc1ncnc2c1ncn2C1CCCO1 (centres unmarked) [SQ 22536, reference compound]

Structure (SMILES): COC[C@H]1OC(=O)c2coc3c2[C@@]1(C)C1=C(C3=O)[C@@H]2CCC(=O)[C@@]2(C)C[C@H]1OC(C)=O [wortmannin, Wortmannin, reference compound]
TNF-α-induced NF-κB activation (EMSA), kinase inhibitor alone [1]: inhibited | TNF-α-induced Akt phosphorylation (Thr308), kinase inhibitor alone [2]: inhibited | TNF-α-induced PI-3K activity (PI-3K): abolished

Source: article PMC3465347, “Regulation of NF-κB Activation through a Novel PI-3K-Independent and PKA/Akt-Dependent Pathway in Human Umbilical Vein Endothelial Cells” (PLoS ONE, 2012)
